Columns and labels:
rat plasma proteins = assay: Protein binding of [^14C] DHA, equilibrium dialysis, rat plasma; format: in vitro ADME; conditions: undiluted rat plasma, 0.15 to 57800 ng/ml, 37°C, five hours
Protocol: (§1) Human blood samples (five men and five women) were freshly obtained from subject volunteers at the Department of Clinical Trials, WRAIR. Rat samples were freshly collected from five male and five female rats. Equilibrium dialysis was performed using Teflon dialysis chambers and Diachema standard membranes as described by Li and Hümpel. The GD-4/90 Equilibrium Dialyzer (MM Developments, Ottawa) contained 20 micro-dialysis cells (2.0 ml/chamber). The molecular weight cutoff for dialysis membranes was 5000 D. Equilibrium was reached after four hours, when cells were rotated at 16 rpm and 37°C. Drugs were dissolved in plasma samples with various concentrations (0.15 – 57800 ng/ml) and all experiments were carried out for five hours.

human plasma proteins = assay: Protein binding of [^14C] DHA, equilibrium dialysis, human plasma; format: in vitro ADME
Protocol: as §1

**Q.** Which results are given for `C[C@@H]1CC[C@H]2[C@@H]([14CH3])C(O)O[C@@H]3O[C@@]4(C)CC[C@@H]1[C@]32OO4` (stereo partly shown) [[^14C] DHA, [16-^14C] DHA]?
**A.** plasma protein binding percentage (rat plasma proteins): 76–82%; maximum binding percentage (human plasma proteins; human plasma, concentration range 0.15 – 462 ng/ml): 82%; binding percentage declined to, at higher concentrations (human plasma proteins; human plasma, higher concentrations (> 25 ng/ml)): 66%; plasma protein binding percentage (human plasma proteins; undiluted human plasma, 0.15 to 57800 ng/ml, 37°C, five hours): 76–82%
